Where “and” joins values, the source holds several entries; their conditions need not be identical. Identical values can stand only once.
Columns and labels:
Format in all cases: cell-based
320 non-olfactory GPCRs [1] = molecular target: T1, 320 non-olfactory GPCRs (Homo sapiens, UniProt P25089)
T1 construct: expressed in transfected cells; host or cells: HTLA cells

320 non-olfactory GPCRs [2] = molecular target: T2, 320 non-olfactory GPCRs (Homo sapiens, UniProt P47871)
T2 construct: expressed in transfected cells; host or cells: HTLA cells
T2 sequence (P47871 26-477): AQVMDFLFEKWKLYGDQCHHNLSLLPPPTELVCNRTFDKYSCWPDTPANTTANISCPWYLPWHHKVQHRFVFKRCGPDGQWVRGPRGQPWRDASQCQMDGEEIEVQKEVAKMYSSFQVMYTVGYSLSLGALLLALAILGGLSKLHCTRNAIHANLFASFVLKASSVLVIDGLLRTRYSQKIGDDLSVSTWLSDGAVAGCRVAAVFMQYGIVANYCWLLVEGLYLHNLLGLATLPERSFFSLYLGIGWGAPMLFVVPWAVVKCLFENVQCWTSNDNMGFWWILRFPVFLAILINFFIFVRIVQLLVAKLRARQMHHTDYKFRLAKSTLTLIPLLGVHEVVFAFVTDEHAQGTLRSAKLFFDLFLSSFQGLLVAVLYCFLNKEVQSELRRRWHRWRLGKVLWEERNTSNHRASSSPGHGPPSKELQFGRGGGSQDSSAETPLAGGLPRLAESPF

320 non-olfactory GPCRs [3] = molecular target: T3, 320 non-olfactory GPCRs (Homo sapiens, UniProt P35410); conditions: receptor MAS1L; replicate values, Fig_4g
T3 construct: expressed in transfected cells; host or cells: HTLA cells
T3 sequence (P35410 whole entry): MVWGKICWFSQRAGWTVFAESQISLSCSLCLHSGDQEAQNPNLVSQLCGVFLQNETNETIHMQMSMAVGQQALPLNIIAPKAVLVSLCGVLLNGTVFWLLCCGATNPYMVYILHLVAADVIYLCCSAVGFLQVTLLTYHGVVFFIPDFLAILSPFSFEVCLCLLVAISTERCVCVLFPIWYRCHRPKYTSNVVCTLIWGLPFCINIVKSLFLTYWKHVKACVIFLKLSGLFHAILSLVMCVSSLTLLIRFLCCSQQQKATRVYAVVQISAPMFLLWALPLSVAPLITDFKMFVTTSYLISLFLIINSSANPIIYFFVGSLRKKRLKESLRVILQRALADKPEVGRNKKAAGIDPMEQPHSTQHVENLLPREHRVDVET

320 non-olfactory GPCRs [4] = molecular target: T4, 320 non-olfactory GPCRs (Homo sapiens, UniProt P20309)
T4 construct: expressed in transfected cells; host or cells: HTLA cells
T4 sequence (P20309 whole entry): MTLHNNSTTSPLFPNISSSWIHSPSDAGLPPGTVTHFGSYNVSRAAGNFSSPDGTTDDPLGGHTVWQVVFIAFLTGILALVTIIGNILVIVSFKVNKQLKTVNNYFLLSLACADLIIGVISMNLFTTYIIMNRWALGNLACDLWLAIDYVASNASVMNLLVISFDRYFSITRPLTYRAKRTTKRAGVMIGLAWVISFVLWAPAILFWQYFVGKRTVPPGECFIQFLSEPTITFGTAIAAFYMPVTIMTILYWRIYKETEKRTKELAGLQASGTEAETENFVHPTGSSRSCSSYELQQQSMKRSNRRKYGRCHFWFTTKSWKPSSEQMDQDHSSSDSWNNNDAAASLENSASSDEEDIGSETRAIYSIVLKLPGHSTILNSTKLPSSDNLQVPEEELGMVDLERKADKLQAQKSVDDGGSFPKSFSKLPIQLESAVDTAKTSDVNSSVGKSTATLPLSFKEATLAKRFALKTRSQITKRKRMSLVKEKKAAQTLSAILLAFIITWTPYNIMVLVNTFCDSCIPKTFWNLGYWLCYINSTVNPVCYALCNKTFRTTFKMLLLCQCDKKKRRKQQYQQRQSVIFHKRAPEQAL
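For Fold of Basal in this document: compound tested at 1 µM final concentration.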
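For GPCRome agonism screen response in this document: fold over basal response of each receptor without drug.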

T1 sequence (P25089 whole entry): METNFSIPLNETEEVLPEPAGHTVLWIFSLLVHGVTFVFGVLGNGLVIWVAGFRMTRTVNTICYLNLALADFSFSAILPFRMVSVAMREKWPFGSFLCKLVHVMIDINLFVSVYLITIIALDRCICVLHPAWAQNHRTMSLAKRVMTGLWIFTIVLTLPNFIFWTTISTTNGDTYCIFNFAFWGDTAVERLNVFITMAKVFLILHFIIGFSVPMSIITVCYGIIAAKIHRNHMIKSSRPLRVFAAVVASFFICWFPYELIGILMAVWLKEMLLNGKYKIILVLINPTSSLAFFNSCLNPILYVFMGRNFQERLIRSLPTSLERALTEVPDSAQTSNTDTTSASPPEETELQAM

CCOc1cccc2cc(C(C)NCC3(O)CCCCC3)oc12 (stereo not shown) [O4LE6]
Fold of Basal (320 non-olfactory GPCRs [1]): 1.168 and 1.052 and 1.054 and 1.032 | Fold of Basal (320 non-olfactory GPCRs [2]): 1.104 and 0.7209 and 1.128 and 1.0533 | GPCRome agonism screen response (320 non-olfactory GPCRs [3]): 0.5688 and 0.6917 and 1.207 and 0.7272 | Fold of Basal (320 non-olfactory GPCRs [4]): 0.7288 and 1.095 and 0.9519 and 0.808

— article PMC7044277 (Nature Communications, 2020)
